# Laboratory results published in patent US20230044649A1, “METHODS TO ENHANCE BIOAVAVAILABILITY OF ORGANIC SMALL MOLECULES AND DEPOSITED FILMS MADE THEREFROM” (THE REGENTS OF THE UNIVERSITY OF MICHIGAN, priority 2015, published 2023).
# Experiments:
# Solubility at pH 7.4 = assay type: physicochemical
# [1] = system: ovarian carcinoma cell line, OVCAR3; experiment: Cancer cell growth inhibition by drug film, powder or DMSO solution; assay type: cell-based; details: for OVCAR3 cancer cells viability: after 48 hours, nominal 5 μM
# Procedure: The printed films of BAY 11-7082 are tested by applying OVCAR3 cells solution directly onto the film, as compared to the BAY 11-7082 drug in powder form dissolved in DMSO.
# See FIG. 11 showing drug application in a film form.
# physchem = details: 20 °C
# Procedure: First, solubilities of the different compounds in corresponding solvents are measured at temperature 20±1° C.
# [2] = Initial dissolution rate of printed film versus loose powder (USP 2 stirring apparatus, UV-VIS); assay type: physicochemical
# Text: When comparing dissolution from powder form and film form for the same material and same crystal structure, D, V, Cs are constant and initial dissolution rate will be proportional to A/δ. δ and A are constant for dissolution from film since area of the film is not changing during dissolution. In a powder, δ and A are changing since particles size and shape is changing. […] Therefore only the initial rate can be compared between powder and a film.
# In order to compare film form versus original powder dissolution behavior, loose powders with same weight as films are introduced into 10 ml solution without any prior treatment and stirred using stirring rod with same shape and diameter as one that is used for films. All experiments are performed at temperature […].
# (§1) For dissolution rate experiments a USP 2 stirring apparatus with stirring speed of 100 rpm is used. Concentration is monitored using UV-VIS spectrometer equipped with dipping probe. As an example glass slides substrates with deposited 9 mm diameter drug films are used. Films weights are in the range of 5-80 μg. First, intrinsic dissolution rate (IDR) of films is studied and compared it to dissolution of compressed powder in form of 1.57 mm diameter pellets. IDR is defined as Equation (4): […]
# [3] = Intrinsic dissolution rate (IDR) of films compared with compressed powder pellets; assay type: physicochemical; details: comparable to compressed pellets, about 10 ml, 20±1° C., solvent per compound as
# Procedure: as §1
# In this case (dm/dt)max is maximum slope in a dissolution curve evaluated at the start of dissolution process (m—dissolved solute mass). Glass substrates with deposited films are attached to a stirring rod having same diameter as compressed pellets rod (20 mm), assuring that hydrodynamic boundary layer thickness is same for compressed powder and deposited film. Solution volume remains constant in all experiments, about 10 ml, and temperature is 20±1° C.
# [4] = Surface area of printed film and of powder; assay type: physicochemical
# [5] = system: breast carcinoma cell line, MCF7; experiment: Cancer cell growth inhibition by drug film, powder or DMSO solution; assay type: cell-based; details: after 48 hours, nominal 5 μM
# [6] = powder form dissolved in growth medium
smiles,measurement,setting,value
"Cc1ccc(S(=O)(=O)/C=C/C#N)cc1 [BAY 11-7082, (E)-3-(4-Methylphenylsulfonyl)-2-propenenitrile]",solubility,Solubility at pH 7.4,29.25 ± 0.05 µg/mL
same,efficacy / viability with film form drug compared with drug dissolved in DMSO,[1]; OVCAR3 cells applied directly onto the film,No significant difference in efficacy
O=C1OC2(c3ccc(O)cc3Oc3cc(O)ccc32)c2ccccc21 [fluorescein],solubility,physchem; water,10 ± 0.5 µg/mL
CC(C)Cc1ccc(C(C)C(=O)O)cc1 (stereo not drawn) [ibuprofen],enhancement of initial dissolution rate in film versus loose powder,"[2]; aqueous HCl buffer pH 1.2, FIG. 10(b), 19±1° C.",about 30 times
same,"initial dissolution rate, printed film relative to powder",[2]; ibuprofen in buffer HCl 1.3,about 10 times higher
same,initial dissolution rate,"[2]; ibuprofen in buffer HCl 1.3, 30 μg of powder",0.0004 µg/mL/s
same,initial dissolution rate,"[2]; ibuprofen in buffer HCl 1.3, printed film",0.04 µg/mL/s
same,solubility,"physchem; pH 1.2, simulated gastric fluid",22.5 ± 0.5 µg/mL
same,intrinsic dissolution rate (IDR),[3],1×10^−3±3×10^−4 μg sec^−1 mm^−2
same,film surface area relative to powder surface area,[4],about 5 times higher
CC/C(=C(\c1ccccc1)c1ccc(OCCN(C)C)cc1)c1ccccc1 [tamoxifen],intrinsic dissolution rate (IDR),[3],6×10^−4±1×10^−4 μg sec^−1 mm^−2
same,MCF7 cancer cells viability,[5]; film form,58%
same,MCF7 cancer cells viability,[5]; [6],79%
same,OVCAR3 cancer cells viability,[1]; film form,44%
same,OVCAR3 cancer cells viability,[1]; [6],68%
